One test has as its target T1, FSAP in plasma (Homo sapiens, UniProt Q14520).
T1 construct: from tissue; host or cells: citrate plasma
Briefly: Activation of FSAP in citrate plasma with dextran sulfate as cofactor, LOCI signal. Conditions: Test buffer with DXS 20 μg/mL. The test is classed as biochemical. The method, then:
Activation in the presence of dextran sulfate leads to a different signal height and signal dynamics versus the same sample, with the same FSAP concentration, but without activation by dextran sulfate (Table 4 and FIG. 2). The signal height produced by activation of the FSAP roughly corresponds to the signal of a purified tc-FSAP of equal concentration of 12 μg/mL with an enzyme activity of 1 PEU/mL (not shown).

In the next test the target is T2, tc-FSAP (Homo sapiens, UniProt Q14520).
T2 construct: directed against the light chain of FSAP; Two-chain FSAP (tc-FSAP) was prepared, as described by Kannemeier et al; made in house
The experiment in a line: tc-FSAP inhibition assay (LOCI signal, peptide substrate IV). The test is classed as biochemical. Particulars: for signal: measured value after 15 minutes. The method, then:
The kinetics of enzyme-inhibitor interaction was investigated by measuring enzyme activity as a function of the amount of inhibitor. In the tc-FSAP inhibition assays, constant amounts of enzyme (tc-FSAP, μg/mL) were preincubated with variable inhibitor concentrations (aprotinin from bovine lung, Fluka), to enable formation of the enzyme-inhibitor complex. Another assay was carried out without preincubation. The remaining protease activity was determined after adding the peptide substrate, as described in example 1.
120 μL test buffer pH 6.3, 10 μL anti-FSAP Chemibeads (200 μg/mL in test buffer), 10 μL purified tc-FSAP (10 μg/mL) and 10 μL test buffer with 0, 4.7 and 47.2 U/mL aprotinin were mixed in DIMENSION VISTA® LOCI® reaction cuvettes. Addition of 10 μL of biotinylated peptide substrate IV in test buffer and 10 μL Sensibeads (400 μg/mL in test buffer) took place without preincubation or after 10 minutes of preincubation at 37° C. The resultant LOCI® signal was measured kinetically, over a period of 15 minutes at 37° C., in a commercially available DIMENSION VISTA® LOCI® measuring unit (Siemens Healthcare Diagnostics Products GmbH) with 200 ms illumination at 680 nm and 1000 ms measuring time at 612 nm.
Another inhibitor used was a monoclonal antibody that inhibits FSAP activity (Siemens Healthcare Diagnostics Products GmbH, MAk No. 1102/570), which is directed against the light chain of FSAP and is formed by the hybridoma cell line DSM ACC2533 (see EP-A2-1334983), similarly to the assay with aprotinin.

T1 sequence (Q14520 24-313): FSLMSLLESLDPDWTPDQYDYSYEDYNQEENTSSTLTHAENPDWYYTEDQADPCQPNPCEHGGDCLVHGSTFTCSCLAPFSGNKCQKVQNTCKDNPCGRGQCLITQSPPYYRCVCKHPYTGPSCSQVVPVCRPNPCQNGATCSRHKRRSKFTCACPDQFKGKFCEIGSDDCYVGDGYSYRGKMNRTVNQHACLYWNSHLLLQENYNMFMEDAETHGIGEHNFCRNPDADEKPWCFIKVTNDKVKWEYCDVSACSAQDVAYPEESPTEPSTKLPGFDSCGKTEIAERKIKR
T1 sequence (Q14520 314-560): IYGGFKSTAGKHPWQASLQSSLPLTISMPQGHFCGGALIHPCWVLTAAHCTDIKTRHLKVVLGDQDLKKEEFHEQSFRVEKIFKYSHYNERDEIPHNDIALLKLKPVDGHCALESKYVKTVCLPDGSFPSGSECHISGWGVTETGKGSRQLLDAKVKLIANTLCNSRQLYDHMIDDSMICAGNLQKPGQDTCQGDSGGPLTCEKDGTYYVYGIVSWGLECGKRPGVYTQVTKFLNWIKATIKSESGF
T2 sequence (Q14520 314-560 limits assumed): as the sequence (Q14520 314-560) above
T2 sequence (Q14520 24-313 partner limits assumed): as the sequence (Q14520 24-313) above

In the case of dextran sulfate sodium salt [DXS], the signal on FSAP in plasma (MW ≧ 500 kDa, peptide 10 μg/mL, incubation time 5 at +37° C.) was 50.303 kcounts; on FSAP in plasma (MW ≧ 500 kDa, peptide 10 μg/mL, incubation time 10 at +37° C.) it was 106.500 kcounts; on FSAP in plasma (MW ≧ 500 kDa, peptide 10 μg/mL, incubation time 15 at +37° C.), 118.096 kcounts; on FSAP in plasma (peptide 0 μg/mL, incubation time 5 at +37° C.), 1.166 kcounts; on FSAP in plasma (peptide 0 μg/mL, incubation time 10 at +37° C.), 1.220 kcounts; on FSAP in plasma (peptide 0 μg/mL, incubation time 15 at +37° C.), 1.204 kcounts.

aprotinin: the signal on tc-FSAP (Aprotinin 4.7 U/mL, with 10 min preincubation) was found to be 15.03 kcounts; at tc-FSAP (Aprotinin 4.7 U/mL, without preincubation) it was 71.18 kcounts; on tc-FSAP (Aprotinin 47.3 U/mL, with 10 min preincubation), 11.77 kcounts; on tc-FSAP (Aprotinin 47.3 U/mL, without preincubation), 67.8 kcounts. In addition, the “Effect on LOCI signal of tc-FSAP (in words)” value at tc-FSAP (mainly after preincubation with tc-FSAP) was “strong signal-reducing effect”.

The values are drawn from patent US8945825B2, “Homogeneous activity test for determining enzymatic reactions” (Siemens Healthcare Diagnostics Products GmbH, priority 2010, dated 2015).
